From ChEMBL document CHEMBL2163216, “Design of fully synthetic, self-adjuvanting vaccine incorporating the tumor-associated carbohydrate Tn antigen and lipoamino acid-based Toll-like receptor 2 ligand” (J Med Chem, 2012)
The source made the active and inactive calls. The rule behind the calls is not given here. Where a SMILES comes first, the peptide text is derived from it. [ ]: non-standard residue; d: D form. The star is where a group is joined. ξ: configuration not given here. αGalNAc = CC(=O)N[C@@H]1[C@@H](O)[C@@H](O)[C@@H](CO)O[C@@H]1*; ξGly(tetradecyl) = CCCCCCCCCCCCCCC(N)C(=O)O

How the values were obtained:
Mus musculus [1] = assay: Immunostimulatory activity in BALB/c (H-2d) mouse assessed as increase in IgG level at 30 ug, sc per week for 5 weeks coadministered with complete freund's adjuvant measured on day 9 after last immunization by ELISA; format: functional, organism-based
Mus musculus [2] = assay: Immunostimulatory activity in BALB/c (H-2d) mouse assessed as increase in IgG level at 30 ug, sc per week for 5 weeks measured on day 9 after last immunization by ELISA relative to untreated-control; format: functional, organism-based
[3] = molecular target: Toll-like receptor 2 (Homo sapiens) (UniProt O60603); assay: Activation of human TLR2 expressed in HEK293 cells at 100 to 300 nM after 4 hrs by luciferase reporter gene assay; format: cell-based
Chain of Toll-like receptor 2 (Homo sapiens) (O60603 whole entry): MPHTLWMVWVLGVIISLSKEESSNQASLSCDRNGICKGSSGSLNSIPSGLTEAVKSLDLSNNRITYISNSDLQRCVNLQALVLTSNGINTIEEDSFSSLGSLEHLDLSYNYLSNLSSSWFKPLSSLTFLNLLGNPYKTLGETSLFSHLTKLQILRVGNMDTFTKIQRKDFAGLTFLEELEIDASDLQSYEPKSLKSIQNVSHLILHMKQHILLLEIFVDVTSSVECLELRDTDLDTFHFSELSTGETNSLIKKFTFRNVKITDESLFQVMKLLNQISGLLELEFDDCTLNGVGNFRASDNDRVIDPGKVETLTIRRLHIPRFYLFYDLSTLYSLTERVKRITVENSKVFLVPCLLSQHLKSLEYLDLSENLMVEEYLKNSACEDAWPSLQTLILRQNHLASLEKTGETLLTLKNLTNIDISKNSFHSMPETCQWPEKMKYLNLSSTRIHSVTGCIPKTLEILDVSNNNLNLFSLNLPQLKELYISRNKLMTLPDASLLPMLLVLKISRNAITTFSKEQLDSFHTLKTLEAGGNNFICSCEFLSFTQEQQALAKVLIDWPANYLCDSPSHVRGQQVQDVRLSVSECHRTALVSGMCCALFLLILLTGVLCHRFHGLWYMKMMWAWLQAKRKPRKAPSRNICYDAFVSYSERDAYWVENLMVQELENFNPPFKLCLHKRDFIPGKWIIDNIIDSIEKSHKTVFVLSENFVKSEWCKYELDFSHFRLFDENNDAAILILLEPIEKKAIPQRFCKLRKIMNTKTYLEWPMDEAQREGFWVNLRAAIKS

Activity [3] | SMILES | Activity (Mus musculus [1]) | Activity (Mus musculus [2])
 | CCCCCCCCCCCCCCC(NC(=O)C(CCCCCCCCCCCCCC)NC(=O)[C@H](CO)NC(=O)[C@H](CO)NC(=O)[C@H](CCCCN)NC(=O)[C@H](CO[C@H]1O[C@H](CO)[C@H](O)[C@H](O)[C@H]1NC(C)=O)NC(=O)[C@H](CO[C@H]1O[C@H](CO)[C@H](O)[C@H](O)[C@H]1NC(C)=O)NC(=O)[C@H](CO[C@H]1O[C@H](CO)[C@H](O)[C@H](O)[C@H]1NC(C)=O)NC(=O)[C@@H](NC(=O)[C@H](CC(=O)O)NC(=O)[C@H](CCCCN)NC(=O)[C@H](Cc1ccc(O)cc1)NC(=O)[C@@H](NC(=O)[C@@H](NC(=O)[C@H](CCCCN)NC(=O)[C@H](Cc1c[nH]c2ccccc12)NC(=O)[C@@H](NC(=O)[C@H](C)NC(=O)[C@H](Cc1ccccc1)NC(=O)[C@H](CC(C)C)NC(=O)[C@H](CCCCN)NC(C)=O)C(C)C)[C@@H](C)CC)[C@@H](C)O)[C@@H](C)O)C(N)=O (stereo partly specified) | Active | Active
Active | CCCCCCCCCCCCCCC(NC(=O)C(CCCCCCCCCCCCCC)NC(=O)[C@H](CO)NC(=O)[C@H](CO)NC(=O)[C@H](CCCCN)NC(=O)[C@H](CO[C@H]1O[C@H](CO)[C@H](O)[C@H](O)[C@H]1NC(C)=O)NC(C)=O)C(N)=O (stereo partly specified) (Ac-S(αGalNAc)KSS[ξGly(tetradecyl)][ξGly(tetradecyl)]-NH2) |  | 
 | CCCCCCCCCCCCCCC(NC(=O)C(CCCCCCCCCCCCCC)NC(=O)[C@H](CO)NC(=O)[C@H](CO)NC(=O)[C@H](CCCCN)NC(=O)[C@H](CO[C@H]1O[C@H](CO)[C@H](O)[C@H](O)[C@H]1NC(C)=O)NC(=O)[C@H](CO[C@H]1O[C@H](CO)[C@H](O)[C@H](O)[C@H]1NC(C)=O)NC(=O)[C@H](CO[C@H]1O[C@H](CO)[C@H](O)[C@H](O)[C@H]1NC(C)=O)NC(=O)[C@H](CCCCNC(=O)[C@H](CC(C)C)NC(=O)[C@H](CCCCN)NC(=O)[C@H](CCC(=O)O)NC(=O)[C@H](Cc1ccccc1)NC(=O)[C@H](CC(N)=O)NC(=O)[C@@H](NC(=O)[C@@H](NC(=O)[C@H](CO)NC(C)=O)[C@@H](C)CC)[C@@H](C)CC)NC(=O)[C@@H](NC(=O)[C@H](CC(=O)O)NC(=O)[C@H](CCCCN)NC(=O)[C@H](Cc1ccc(O)cc1)NC(=O)[C@@H](NC(=O)[C@@H](NC(=O)[C@H](CCCCN)NC(=O)[C@H](Cc1c[nH]c2ccccc12)NC(=O)[C@@H](NC(=O)[C@H](C)NC(=O)[C@H](Cc1ccccc1)NC(=O)[C@H](CC(C)C)NC(=O)[C@H](CCCCN)NC(C)=O)C(C)C)[C@@H](C)CC)[C@@H](C)O)[C@@H](C)O)C(N)=O (stereo partly specified) |  | inactive
 | CCCCCCCCCCCCCCC(NC(=O)C(CCCCCCCCCCCCCC)NC(=O)[C@H](CO)NC(=O)[C@H](CO)NC(=O)[C@H](CCCCN)NC(=O)[C@H](CO[C@H]1O[C@H](CO)[C@H](O)[C@H](O)[C@H]1NC(C)=O)NC(=O)[C@H](CO[C@H]1O[C@H](CO)[C@H](O)[C@H](O)[C@H]1NC(C)=O)NC(=O)[C@H](CO[C@H]1O[C@H](CO)[C@H](O)[C@H](O)[C@H]1NC(C)=O)NC(=O)[C@@H](NC(=O)[C@H](CC(=O)O)NC(=O)[C@H](CCCCN)NC(=O)[C@H](Cc1ccc(O)cc1)NC(=O)[C@@H](NC(=O)[C@@H](NC(=O)[C@H](CCCCN)NC(=O)[C@H](Cc1c[nH]c2ccccc12)NC(=O)[C@@H](NC(=O)[C@H](C)NC(=O)[C@H](Cc1ccccc1)NC(=O)[C@H](CC(C)C)NC(=O)[C@H](CCCCN)NC(=O)[C@H](CC(C)C)NC(=O)[C@H](CCCCN)NC(=O)[C@H](CCC(=O)O)NC(=O)[C@H](Cc1ccccc1)NC(=O)[C@H](CC(N)=O)NC(=O)[C@@H](NC(=O)[C@@H](NC(=O)[C@H](CO)NC(C)=O)[C@@H](C)CC)[C@@H](C)CC)C(C)C)[C@@H](C)CC)[C@@H](C)O)[C@@H](C)O)C(N)=O (stereo partly specified) | Active | inactive
